Results: patent US20250152585A1, “PHARMACEUTICAL COMPOUND” (Duke Street Bio Limited, priority 2022, published 2025)
Read-outs that look alike come from different tables or passages of the source.

Assays:
[1] = molecular target: T1, full length N-terminally FLAG-tagged PARP1 (Homo sapiens, UniProt P09874); assay: PARP1 probe displacement HTRF assay; conditions: for Selectivity: PARP1 over PARP2, ratio Kd (PARP2)/Kd (PARP1); for Kd: binned Kd
[2] = molecular target: T1, full length N-terminally FLAG-tagged PARP1; assay: PARP1 biochemical DELFIA assay (auto-PARylation); parameters: recombinant full length human N-terminally FLAG-tagged PARP1
[3] = molecular target: T2, N-terminally FLAG-tagged PARP2 (amino acids 1-583) (Homo sapiens, UniProt Q9UGN5); assay: PARP2 probe displacement HTRF assay; type: binding; conditions: binned Kd
T2 construct: N-terminally FLAG-tagged PARP2 (amino acids 1-583)
Description: Data analysis was performed identical as for PARP1.

[4] = read-out: PARP1 HTRF, probe displacement HTRF
[5] = binned IC50, biochemical auto-PARylation assay
[6] = PARP1 HTRF, probe displacement HTRF
[7] = read-out: PARP1 HTRF, PARP1 probe displacement HTRF
[8] = binned IC50, PARP1 biochemical DELFIA assay
[9] = PARP1 HTRF, PARP1 probe displacement HTRF

T1 sequence (P09874 whole entry): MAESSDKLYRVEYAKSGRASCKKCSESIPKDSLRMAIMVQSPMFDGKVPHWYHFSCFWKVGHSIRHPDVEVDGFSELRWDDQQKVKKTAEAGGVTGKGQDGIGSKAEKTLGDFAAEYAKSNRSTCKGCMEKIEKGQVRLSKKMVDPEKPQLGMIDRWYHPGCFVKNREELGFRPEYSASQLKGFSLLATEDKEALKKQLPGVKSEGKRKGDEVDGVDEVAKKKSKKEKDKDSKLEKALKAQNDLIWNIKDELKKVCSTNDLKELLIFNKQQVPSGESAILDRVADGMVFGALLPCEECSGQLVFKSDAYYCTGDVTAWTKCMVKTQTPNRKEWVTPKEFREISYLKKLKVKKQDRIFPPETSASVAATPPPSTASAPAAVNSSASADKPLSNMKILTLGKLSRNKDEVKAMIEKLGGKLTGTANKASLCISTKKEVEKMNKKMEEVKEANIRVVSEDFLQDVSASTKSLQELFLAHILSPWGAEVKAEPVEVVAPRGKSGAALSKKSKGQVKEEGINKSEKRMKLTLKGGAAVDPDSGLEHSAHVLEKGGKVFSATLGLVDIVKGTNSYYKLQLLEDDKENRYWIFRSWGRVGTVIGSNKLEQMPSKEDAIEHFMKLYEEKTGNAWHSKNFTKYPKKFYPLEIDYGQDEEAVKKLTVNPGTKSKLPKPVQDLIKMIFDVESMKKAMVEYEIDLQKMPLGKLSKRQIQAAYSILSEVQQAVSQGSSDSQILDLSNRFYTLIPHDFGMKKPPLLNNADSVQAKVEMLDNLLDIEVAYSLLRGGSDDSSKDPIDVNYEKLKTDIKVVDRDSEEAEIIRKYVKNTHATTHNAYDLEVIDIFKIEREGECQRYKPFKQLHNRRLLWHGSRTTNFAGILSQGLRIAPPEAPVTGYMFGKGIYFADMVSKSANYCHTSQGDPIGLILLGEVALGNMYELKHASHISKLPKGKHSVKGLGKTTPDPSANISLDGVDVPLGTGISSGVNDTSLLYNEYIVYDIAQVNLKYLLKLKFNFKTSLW
T2 sequence (Q9UGN5 whole entry, the tested form may be a part): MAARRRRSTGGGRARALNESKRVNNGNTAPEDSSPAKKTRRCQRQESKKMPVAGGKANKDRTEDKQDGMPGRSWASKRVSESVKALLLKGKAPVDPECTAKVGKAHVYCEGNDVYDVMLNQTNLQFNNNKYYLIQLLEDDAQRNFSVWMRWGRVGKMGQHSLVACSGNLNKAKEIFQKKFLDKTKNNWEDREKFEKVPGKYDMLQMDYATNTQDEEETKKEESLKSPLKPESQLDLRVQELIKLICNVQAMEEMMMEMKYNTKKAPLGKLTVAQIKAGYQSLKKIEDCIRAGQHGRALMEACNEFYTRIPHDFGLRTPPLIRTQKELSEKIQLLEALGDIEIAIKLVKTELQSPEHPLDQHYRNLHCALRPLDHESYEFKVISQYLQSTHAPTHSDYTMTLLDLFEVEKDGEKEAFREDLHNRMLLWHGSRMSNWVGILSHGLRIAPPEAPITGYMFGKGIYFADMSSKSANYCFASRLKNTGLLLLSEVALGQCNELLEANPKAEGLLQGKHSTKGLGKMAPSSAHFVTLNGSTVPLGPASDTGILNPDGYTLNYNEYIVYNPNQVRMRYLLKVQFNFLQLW

Row | Structure (SMILES) | Selectivity ([1]; probe displacement HTRF) | Kd [1, 4] [nM] | IC50 [2, 5] [nM] | Kd ([3]; probe displacement HTRF) [nM] | Kd [1, 6] [nM] | Kd [1, 7] [nM] | IC50 [2, 8] [nM] | Kd ([3]; PARP2 probe displacement HTRF) [nM] | Kd [1, 9] [nM]
1 | O=C(NCC(F)F)c1ccc(N2CCC(N3CCC(c4cc5ccc(F)cc5c(=O)[nH]4)C3)CC2)c(F)n1 (single isomer, unassigned) [Compound 399b] | + (+ indicates a value of 10 to less than 50) | < 10 | < 10 | 10 to 100 |  |  |  |  | 
2 | CNC(=O)c1ccc(N2CCC(N3CCC(c4cc5ncc(F)cc5c(=O)[nH]4)C3)CC2)cn1 (single isomer, unassigned) [Compound 315b] | +++ (+++ indicate a value of at least 100) | < 10 | < 10 | 100 to 1000 |  |  |  |  | 
3 | CNC(=O)c1ccc(N2CCC(N3CC4(c5nc6cccc(C(F)(F)F)c6c(=O)[nH]5)CC3C4)CC2)cn1 [Compound 394] | + (+ indicates a value of 10 to less than 50) |  | < 10 | 10 to 100 | < 10 |  |  |  | 
4 | CNC(=O)c1cc(C)c(N2CCC(N3CCC(c4cc5ccc(F)cc5c(=O)[nH]4)C3)CC2)cn1 (single isomer, unassigned) [Compound 202b] | + (+ indicates a value of 10 to less than 50) |  |  |  |  | < 10 | < 10 | 10 to 100 | 
5 | CNC(=O)c1ccc(OCCCN2CCCC(c3nc4ccccc4c(=O)[nH]3)C2)cn1 (single isomer, unassigned) [Compound 7a] | +++ (+++ indicate a value of at least 100) |  |  |  |  | < 10 | 10 to 100 | 100 to 1000 | 
6 | CCc1ccc(C2CCN(C3CCN(c4cnc(C(=O)NC)nc4Cl)CC3)C2)[nH]c1=O (racemic) [Compound 242rac] | ++ (++ indicates a value of 50 to less than 100) | < 10 | < 10 | 100 to 1000 |  |  |  |  | 
7 | N#Cc1ccc(N2CCC(N3CCC(c4nc5ccccc5c(=O)[nH]4)C3)CC2)cc1 (single isomer, unassigned) [Compound 34b] | +++ (+++ indicate a value of at least 100) |  |  |  |  | < 10 | < 10 | 1000 to 10000 | 
8 | CNC(=O)c1ccc(N2CCC(N3CC4CC(c5nc6ccccc6c(=O)[nH]5)(C4)C3)CC2)cn1 [Compound 168] | +++ (+++ indicate a value of at least 100) |  |  |  |  |  | < 10 | > 10000 | < 10
9 | CNC(=O)c1ccc(N2CCC(N3CCC(c4nc5sc(C)c(C)c5c(=O)[nH]4)C3)CC2)cn1 (single isomer, unassigned) [Compound 221b] | ++ (++ indicates a value of 50 to less than 100) | < 10 | < 10 | 10 to 100 |  |  |  |  | 
10 | CNC(=O)c1ccc(N2CCC(N3CCC(c4nc5c(F)cc(F)cc5c(=O)[nH]4)C3)CC2)cn1 (single isomer, unassigned) [Compound 181a] | + (+ indicates a value of 10 to less than 50) |  |  |  |  | 10 to 100 | 10 to 100 | 100 to 1000 | 
11 | CNC(=O)c1ccc(N2CCC(N3CCC(F)(c4nc5ccccc5c(=O)[nH]4)C3)CC2)cn1 (single isomer, unassigned) [Compound 328b] | +++ (+++ indicate a value of at least 100) | 10 to 100 | 10 to 100 | > 10000 |  |  |  |  | 
12 | CCc1ccc(C2CCN(C3CCN(c4ccc(C#N)nc4)CC3)C2)[nH]c1=O (single isomer, unassigned) [Compound 326a] | + (+ indicates a value of 10 to less than 50) | 100 to 1000 | 100 to 1000 | 1000 to 10000 |  |  |  |  | 
13 | CNC(=O)c1cc(Cl)c(N2CCC(N3CCC(c4cc5ccc(F)cc5c(=O)[nH]4)C3)CC2)cn1 (single isomer, unassigned) [Compound 236b] | + (+ indicates a value of 10 to less than 50) | < 10 | < 10 | 10 to 100 |  |  |  |  | 
14 | CNC(=O)c1ccc(N2CCC(N3CCC(c4nc5c(c(=O)[nH]4)CCCC5)C3)CC2)cn1 (single isomer, unassigned) [Compound 155a] | + (+ indicates a value of 10 to less than 50) |  |  |  |  | 10 to 100 | 10 to 100 | 100 to 1000 | 
15 | CNC(=O)c1ncc(N2CCC(N3CCC(c4cc5ccc(F)cc5c(=O)[nH]4)C3)CC2)c(Cl)n1 (racemic) [Compound 400rac] | +++ (+++ indicate a value of at least 100) | < 10 | < 10 | 100 to 1000 |  |  |  |  | 
16 | CC(=O)Nc1ccc(N2CCC(N3CCC(c4nc5ccccc5c(=O)[nH]4)C3)CC2)cn1 (single isomer, unassigned) [Compound 262b] | + (+ indicates a value of 10 to less than 50) | 100 to 1000 | 100 to 1000 | 1000 to 10000 |  |  |  |  | 

Row | Structure (SMILES) | Selectivity ([1]; probe displacement HTRF) | Kd [1, 4] [nM] | IC50 [2, 5] [nM] | Kd ([3]; probe displacement HTRF) [nM] | Kd [1, 6] [nM] | Kd [1, 7] [nM] | IC50 [2, 8] [nM] | Kd ([3]; PARP2 probe displacement HTRF) [nM] | Kd [1, 9] [nM]
17 | CNC(=O)c1ccc(N2CCC(N3CCC(c4nc5c(F)cccc5c(=O)[nH]4)C3)CC2)cn1 (single isomer, unassigned) [Compound 121a] | + (+ indicates a value of 10 to less than 50) |  |  |  |  | 10 to 100 | 10 to 100 | 100 to 1000 | 
18 | CNC(=O)c1ccc(N2CCC(N3CCOC(c4nc5ccccc5c(=O)[nH]4)C3)CC2)cn1 (single isomer, unassigned) [Compound 58a] | +++ (+++ indicate a value of at least 100) |  |  |  |  | < 10 | < 10 | > 10000 | 
19 | CCc1ccc(C2CCCN(C3CCN(c4ccc(C(=O)NC)nc4)CC3)C2)[nH]c1=O (single isomer, unassigned) [Compound 53b, 5-{4-[3-(5-ethyl-6-oxo-1H-pyridin-2-yl)piperidin-1-yl]piperidin-1-yl}-N-methylpyridine-2-carboxamide] | + (+ indicates a value of 10 to less than 50) |  |  |  |  |  | 100 to 1000 | > 10000 | 100 to 1000
20 | CCc1cnc(C2CCN(C3CCN(c4ccc(C(=O)NC)nc4)CC3)C2)[nH]c1=O (racemic) [Compound 42rac] | +++ (+++ indicate a value of at least 100) |  |  |  |  |  | < 10 | 1000 to 10000 | < 10
21 | CS(=O)(=O)Nc1ccc(N2CCC(N3CCC(c4cc5ccccc5c(=O)[nH]4)C3)CC2)cc1 (single isomer, unassigned) [Compound 251b] | + (+ indicates a value of 10 to less than 50) | 10 to 100 | 10 to 100 | 100 to 1000 |  |  |  |  | 
22 | N#Cc1ccc(N2CCC(N3CCCC(c4nc5ccccc5c(=O)[nH]4)C3)CC2)nc1 (single isomer, unassigned) [Compound 74b] | ++ (++ indicates a value of 50 to less than 100) |  |  |  |  | 10 to 100 | 10 to 100 | 1000 to 10000 | 
23 | CNC(=O)c1ccc(N2CCC(N3CCC(c4nc5c(c(=O)[nH]4)CCCC5)C3)CC2)cn1 (single isomer, unassigned) [Compound 155b] | +++ (+++ indicate a value of at least 100) |  |  |  |  | < 10 | < 10 | 100 to 1000 | 
24 | CNC(=O)c1ncc(N2CCC(N3CCC(c4cc5ccc(F)cc5c(=O)[nH]4)C3)CC2)c(C(F)(F)F)n1 (single isomer, unassigned) [Compound 266a] | +++ (+++ indicate a value of at least 100) | < 10 | < 10 | 100 to 1000 |  |  |  |  | 
25 | CCc1ccc(C2CCN(C3CCN(c4ccc(OC(F)F)nc4)CC3)C2)[nH]c1=O (single isomer, unassigned) [Compound 382a] | + (+ indicates a value of 10 to less than 50) | 100 to 1000 | 100 to 1000 | > 10000 |  |  |  |  | 
26 | CNC(=O)c1ccc(N2CCC(N3CCC(c4nc5ccc(F)c(F)c5c(=O)[nH]4)C3)CC2)cn1 (single isomer, unassigned) [Compound 222a] | + (+ indicates a value of 10 to less than 50) | < 10 | < 10 | 100 to 1000 |  |  |  |  | 
27 | CNC(=O)c1ccc(N2CCC(N3CCC(c4ncc(C(F)(F)F)c(=O)[nH]4)C3)CC2)cn1 (single isomer, unassigned) [Compound 56a] | ++ (++ indicates a value of 50 to less than 100) |  |  |  |  | 10 to 100 | 100 to 1000 | > 10000 | 
28 | CNC(=O)c1ccc(N2CCC(N3CC4(c5nc6cccc(F)c6c(=O)[nH]5)CC3C4)CC2)cn1 [Compound 227] | +++ (+++ indicate a value of at least 100) |  | < 10 | 100 to 1000 | < 10 |  |  |  | 
29 | N#Cc1ccc(N2CCC(N3CC4(c5nc6ccc(F)cc6c(=O)[nH]5)CC3C4)CC2)c(F)c1 [Compound 380] | +++ (+++ indicate a value of at least 100) |  | < 10 | > 10000 | < 10 |  |  |  | 
30 | CNC(=O)c1ccc(N2CCC(N3CCC(c4nc5c(c(=O)[nH]4)CCCN5)C3)CC2)cn1 (single isomer, unassigned) [Compound 214b] | +++ (+++ indicate a value of at least 100) |  |  |  |  | < 10 | < 10 | 100 to 1000 | 
31 | N#Cc1ccc(N2CCC(N3CCC(c4cc5ccc(F)cc5c(=O)[nH]4)C3)CC2)c(Cl)c1 (single isomer, unassigned) [Compound 386a] | +++ (+++ indicate a value of at least 100) | < 10 | < 10 | 100 to 1000 |  |  |  |  | 
32 | CNC(=O)c1cnc(N2CCC(N3CCC(c4nc5ccccc5c(=O)[nH]4)C3)CC2)cn1 (single isomer, unassigned) [Compound 96b] | − (− indicates a value of less than 10) |  |  |  |  | 100 to 1000 | 100 to 1000 | 100 to 1000 | 
